Laboratory results from paper PMC6155021, “Ancient and modern anticonvulsants act synergistically in a KCNQ potassium channel binding pocket” (Nature Communications, 2018).

Experiments:
KCNQ2/3 channels [1] = target: T1, KCNQ2/3 channels (Homo sapiens, UniProt O43525+O43526); assay: Two-electrode voltage-clamp of KCNQ2/3 channels expressed in Xenopus laevis oocytes; type: cell-based; settings: for Non-normalized tail current V0.5 / Normalized tail current V0.5 / Slope: KCNQ2/3; for effect on voltage dependence of KCNQ2/3 activation (initial screen): tail currents at −30 mV
Description: cRNA transcripts encoding human KCNA1, KCNQ1, KCNQ2, KCNQ3, KCNQ4, or KCNQ5 were generated by in vitro transcription using the T7 polymerase message machine kit (Thermo Fisher Scientific), after vector linearization, from cDNA sub-cloned into plasmids incorporating X. laevis β-globin 5′ and 3′ UTRs flanking the coding region to enhance translation and cRNA stability. cRNA was quantified by spectrophotometry. Mutant cDNAs were generated by site-directed mutagenesis using a QuikChange kit according to manufacturer’s protocol (Stratagene, San Diego, CA) and corresponding cRNAs prepared as above. Defolliculated stage V and VI X. laevis oocytes (Ecocyte Bioscience, Austin, TX) were injected with Kv channel α subunit cRNAs (10 ng total per oocyte). Oocytes were incubated at 16 °C in Barth’s saline solution (Ecocyte) containing penicillin and streptomycin, with daily washing, for 3–5 days prior to two-electrode voltage-clamp (TEVC) recording.
Oocytes were placed in a small-volume oocyte bath (Warner) and viewed with a dissection microscope. Chemicals were sourced from Sigma. Bath solution was (in mM): 96 NaCl, 4 KCl, 1 MgCl2, 1 CaCl2, 10 HEPES (pH 7.6). […] MTX (DMSO), sorbic acid (ethanol), and glutaconic acid (molecular grade H2O) were stored at −20 °C as 1 M stocks. Oleamide was stored as a 1 mM stock in ethanol at 4 °C. Palmitic acid was conjugated with bovine serum albumin as a 1 mM stock and stored at −20 °C. All compounds were diluted to working concentrations each experimental day. All compounds were introduced to the recording bath via gravity perfusion at a constant flow of 1 ml/min for 3 min prior to recording. Pipettes were of 1–2 MΩ resistance when filled with 3 M KCl. Currents were recorded in response to pulses between −80 and +40 mV at 20 mV intervals, or a single pulse to +40 mV, from a holding potential of −80 mV, to yield current–voltage relationships, current magnitude, and for quantifying activation rate. TEVC data analysis was performed with Clampfit10.2 (Molecular Devices) and Graphpad Prism software (GraphPad, San Diego, CA, USA); values are stated as mean ± SEM. Normalized tail currents were plotted versus prepulse voltage and fitted with a single Boltzmann function:1 g=A1-A2/1+expV12-Vy+A2, where g is the normalized tail conductance, A1 is the initial value at −∞, A2 is the final value at +∞, V1/2 is the half-maximal voltage of activation, and Vs the slope factor. Activation and deactivation kinetics were fitted with single-exponential functions.

KCNQ2/3 channels [2] = target: T1, KCNQ2/3 channels; settings: previously found; cited from earlier work
[3] = cited from earlier work

SMILES | Non-normalized tail current V0.5 (KCNQ2/3 channels [1]; 100 µM) [mV] | Normalized tail current V0.5 (KCNQ2/3 channels [1]; 100 µM) [mV] | Slope (KCNQ2/3 channels [1]; 100 µM) [mV] | Non-normalized tail current V0.5 (KCNQ2/3 channels [1]; 0.1 µM) [mV] | Normalized tail current V0.5 (KCNQ2/3 channels [1]; 0.1 µM) [mV] | Slope (KCNQ2/3 channels [1]; 0.1 µM) [mV] | Non-normalized tail current V0.5 (KCNQ2/3 channels [1]; 1 µM) [mV] | Normalized tail current V0.5 (KCNQ2/3 channels [1]; 1 µM) [mV] | Slope (KCNQ2/3 channels [1]; 1 µM) [mV] | Non-normalized tail current V0.5 (KCNQ2/3 channels [1]; 10 µM) [mV] | Normalized tail current V0.5 (KCNQ2/3 channels [1]; 10 µM) [mV] | Slope (KCNQ2/3 channels [1]; 10 µM) [mV] | also measured
C=CCCCCC [1-Heptene] | -41.9 ± 4.9 | -41.8 ± 0.9 | 5.8 ± 1.5 | – | – | – | – | – | – | – | – | – | –
O=C(O)/C=C/CC(=O)O [Glutaconic Acid, glutaconic acid] | -40.8 ± 3.8 | -40.7 ± 1.2 | 5.4 ± 1.7 | -40.4 ± 1.5 | -41.2 ± 1.4 | 4.4 ± 3.7 | -41.5 ± 1.3 | -42.7 ± 1.7 | 4.8 ± 2.4 | -42.1 ± 3.8 | -42.9 ± 2.2 | 5.4 ± 2.3 | effect on voltage dependence of KCNQ2/3 activation (initial screen) (KCNQ2/3 channels [1]; 100 µM): negative-shifted; Non-normalized tail current V0.5 (KCNQ2/3 channels [1]; 500 µM): -38.5 ± 5.4 mV; Normalized tail current V0.5 (KCNQ2/3 channels [1]; 500 µM): -37.7 ± 0.9 mV; Slope (KCNQ2/3 channels [1]; 500 µM): 6.8 ± 0.9 mV
CCCCC(=O)O [valeric acid] | – | – | – | – | – | – | – | – | – | – | – | – | ability to activate KCNQ2/3 channels (KCNQ2/3 channels [2]): inactive
CCCCCCCC/C=C\CCCCCCCC(N)=O [Oleamide, oleamide] | -41.9 ± 3.5 | -41.5 ± 0.8 | 6.6 ± 0.8 | -41.9 ± 4.8 | -41.8 ± 0.6 | 6.5 ± 0.9 | -41.6 ± 4.3 | -41.5 ± 0.8 | 6.7 ± 1.1 | -39.4 ± 4.8 | -39.2 ± 0.8 | 7.0 ± 0.8 | Non-normalized tail current V0.5 (KCNQ2/3 channels [1]; 500 µM): -37.6 ± 2.1 mV; Normalized tail current V0.5 (KCNQ2/3 channels [1]; 500 µM): -37.9 ± 0.8 mV; Slope (KCNQ2/3 channels [1]; 500 µM): 6.7 ± 0.6 mV
CC(C)CC(N)=O [Isovaleramide, isovaleramide] | – | – | – | – | – | – | – | – | – | – | – | – | passage through biological membranes [3]: readily passes though biological membranes; mean Tmax ([3]; humans): 0.5 to 0.75 h; mean elimination half-life ([3]; humans): 2.5 h; well tolerated dose ([3]; humans): at least 2400 mg per day
CCC1=C(O)C(=O)CC1 [3-ethyl-2-hydroxy-2-cyclopenten-1-one] | -40.1 ± 1.9 | -41.0 ± 0.9 | 5.1 ± 0.9 | – | – | – | – | – | – | – | – | – | –
CCCCCCCCCCCCCCCC(=O)O [Palmitic Acid, palmitic acid] | – | – | – | -43.6 ± 5.0 | -44.3 ± 1.7 | 7.9 ± 1.7 | -45.6 ± 5.5 | -46.6 ± 1.7 | 7.4 ± 1.7 | -43.1 ± 4.9 | -44.9 ± 0.9 | 6.8 ± 0.9 | effect on voltage dependence of KCNQ2/3 activation (initial screen) (KCNQ2/3 channels [1]; 30 µM): negative-shifted; Non-normalized tail current V0.5 (KCNQ2/3 channels [1]; 3 µM): -45.1 ± 5.4 mV; Normalized tail current V0.5 (KCNQ2/3 channels [1]; 3 µM): -46.5 ± 1.1 mV; Slope (KCNQ2/3 channels [1]; 3 µM): 7.1 ± 1.1 mV; Non-normalized tail current V0.5 (KCNQ2/3 channels [1]; 30 µM): -43.5 ± 4.9 mV; Normalized tail current V0.5 (KCNQ2/3 channels [1]; 30 µM): -44.3 ± 1.4 mV; Slope (KCNQ2/3 channels [1]; 30 µM): 7.0 ± 1.1 mV
